Legend:
[1] = system: enteroids generated from normal human duodenum and jejunum; assay: Swelling measurements in human enteroids; type: cell-based; conditions: pretreatment 10 min, with 0.1 or 0.2 μM forskolin
Procedure: Tissues from human subjects were obtained under approval of the Johns Hopkins University School of Medicine Institutional Review Board (protocol NA_00038329). Duodenal and jejunal biopsy specimens were obtained from adults during routine endoscopy at Johns Hopkins Hospital. Crypt isolation, enteroid propagation and culture were as described (16). For swelling measurements enteroids were seeded in 35-mm dishes with bottom coverglass with 1.5 mL media. On the day of the experiment the media was replaced with 3 mL Advanced DMEM/F12 and enteroids were incubated with 1 mM calcein greenacetoxymethyl ester for 1 h at 37° C. to label cytoplasm. Relative enteroid volume following addition of specified concentrations of forskolin was measured using a laser scanning confocal microscope (Fluoview FV10i-LIV; Olympus) at 37° C., 5% CO2, and 95% relative humidity. In some studies CFTRact-J027 was added 10 min prior to forskolin. Images were acquired every 10 min and analyzed with MetaMorph version 7.7 software (Olympus) to quantify enteroid areas.

[2] = system: Cl− secretion in mouse colon; assay: Short-circuit current in freshly isolated mouse colon; conditions: read-out: EC50 for increase in short-circuit current in mouse colon
Description: Short-circuit current measurement.

[3] = system: whole-gut transit; assay: Whole-gut transit time in mice; type: in vivo, mouse
Procedure: Whole-gut transit time was determined using an orally administered marker (200 μL, 5% Evans Blue, 5% gum Arabic) and measuring the time of its appearance in stool. Mice were administered loperamide and CFTRact-J027 (10 mg/kg) or vehicle intraperitoneally at zero time. For ex vivo contractility measurements, mice were euthanized by avertin overdose (200 mg/kg, 2,2,2-tribromethanol, Sigma-Aldrich) and ileum and colon segments of ˜2 cm length were isolated and washed with Krebs-Henseleit buffer. The ends of the intestinal segments were tied, connected to a force transducer (Biopac Systems, Goleta, Calif., USA) and tissues were transferred to an organ chamber (Biopac Systems) containing Krebs-Henseleit buffer at 37° C. aerated with 95% O2, 5% CO2. Ileum and colon were stabilized for 60 min with resting tensions of 0.5 and 0.2 g respectively, and solutions were changed every 15 min. Effects of CFTRact-J027 on baseline and loperamide-suppressed isometric intestinal contractions were recorded.
In vivo intestinal transit and ex vivo intestinal contractility. Whole-gut transit time was determined using an orally administered marker (200 μL, 5% Evans Blue, 5% gum Arabic) and measuring the time of its appearance in stool. […] Effects of CFTRact-J027 on baseline and loperamide-suppressed isometric intestinal contractions were recorded.

[4] = Compound accumulation in systemic tissues after 14 days topical dosing; type: in vivo, mouse; conditions: two weeks of three times per day topical dosing
[5] = target: human wildtype CFTR (Homo sapiens, UniProt P13569); assay: Fluorescence plate reader assay of iodide influx in FRT cells co-expressing CFTR and YFP halide sensor; conditions: synthesized compounds, full dose-response study; 125 nM forskolin
[6] = system: scopolamine-treated mice; assay: Scopolamine-induced mouse model of acute constipation; type: in vivo
Procedure: Control mice were treated with vehicle only.

[7] = Stability in simulated gastric fluid (pH 2); type: physicochemical; conditions: 10 μM, pH 2, 37° C., 3 h
Procedure: To study gastric acid stability CFTRact-J027 (10 μM) was dissolved in simulated gastric fluid (0.2 NaCl, 0.7% HCl, pH 2) and incubated for 3 h at 37° C. To study in vitro metabolic stability CFTRact-J027 (5 μM) was incubated for specified times at 37° C. with human liver microsomes (1 mg protein/ml; Sigma-Aldrich) in potassium phosphate buffer (100 mM) containing 1 mM NADPH. After specified incubation periods the mixtures were chilled on ice, and 0.5 ml of ice-cold ethyl acetate was added. Samples were centrifuged for 15 min at 3000 rpm, the supernatants evaporated to dryness, and the residues were dissolved in 100 μL mobile phase (acetonitrile:water, 3:1) and assayed by liquid chromatography mass spectrometry (LC/MS). The solvent system consisted of a linear gradient from 5 to 95% acetonitrile over 16 min (0.2 ml/min flow). Mass spectra were acquired on a mass spectrometer (Waters 2695 and Micromass ZQ, Milford, Mass.) using electrospray (+) ionization, mass ranging from 100 to 1500 Da, cone voltage 40 V.

[8] = system: intestinal fluid absorption; assay: Closed mid-jejunal loop model of intestinal fluid absorption in cystic fibrosis mice; type: in vivo, mouse; conditions: 30 min
Procedure: Mice (wildtype or CF) were given access to 5% dextrose water but not solid food for 24 h before experiments. Mice were anesthetized with isoflurane and body temperature was maintained during surgery at 36-38° C. using a heating pad. A small abdominal incision was made to expose the small intestine, and closed mid-jejunal loops (length 2-3 cm) were isolated by sutures. Loops were injected with 100 μL vehicle alone or 100 μg CFTRact-J027 in vehicle. The abdominal incision was closed with sutures, and mice were allowed to recover from anesthesia. Intestinal loops were removed at 90 min and loop length and weight were measured to quantify fluid secretion. Intestinal absorption was measured in CF mice (to prevent secretion) as described above, except that the loops were removed at 0 or 30 min. Absorption was calculated as 1−(loop weight at 0 min−loop weight at 30 min)/loop weight at 0 min.
In vivo intestinal secretion and absorption. Mice (wildtype or CF) were given access to 5% dextrose water but not solid food for 24 h before experiments. […] Intestinal loops were removed at 90 min and loop length and weight were measured to quantify fluid secretion. Intestinal absorption was measured in CF mice (to prevent secretion) as described above, except that the loops were removed at 0 or 30 min. Absorption was calculated as 1−(loop weight at 0 min−loop weight at 30 min)/loop weight at 0 min.

Chain of human wildtype CFTR (P13569 whole entry): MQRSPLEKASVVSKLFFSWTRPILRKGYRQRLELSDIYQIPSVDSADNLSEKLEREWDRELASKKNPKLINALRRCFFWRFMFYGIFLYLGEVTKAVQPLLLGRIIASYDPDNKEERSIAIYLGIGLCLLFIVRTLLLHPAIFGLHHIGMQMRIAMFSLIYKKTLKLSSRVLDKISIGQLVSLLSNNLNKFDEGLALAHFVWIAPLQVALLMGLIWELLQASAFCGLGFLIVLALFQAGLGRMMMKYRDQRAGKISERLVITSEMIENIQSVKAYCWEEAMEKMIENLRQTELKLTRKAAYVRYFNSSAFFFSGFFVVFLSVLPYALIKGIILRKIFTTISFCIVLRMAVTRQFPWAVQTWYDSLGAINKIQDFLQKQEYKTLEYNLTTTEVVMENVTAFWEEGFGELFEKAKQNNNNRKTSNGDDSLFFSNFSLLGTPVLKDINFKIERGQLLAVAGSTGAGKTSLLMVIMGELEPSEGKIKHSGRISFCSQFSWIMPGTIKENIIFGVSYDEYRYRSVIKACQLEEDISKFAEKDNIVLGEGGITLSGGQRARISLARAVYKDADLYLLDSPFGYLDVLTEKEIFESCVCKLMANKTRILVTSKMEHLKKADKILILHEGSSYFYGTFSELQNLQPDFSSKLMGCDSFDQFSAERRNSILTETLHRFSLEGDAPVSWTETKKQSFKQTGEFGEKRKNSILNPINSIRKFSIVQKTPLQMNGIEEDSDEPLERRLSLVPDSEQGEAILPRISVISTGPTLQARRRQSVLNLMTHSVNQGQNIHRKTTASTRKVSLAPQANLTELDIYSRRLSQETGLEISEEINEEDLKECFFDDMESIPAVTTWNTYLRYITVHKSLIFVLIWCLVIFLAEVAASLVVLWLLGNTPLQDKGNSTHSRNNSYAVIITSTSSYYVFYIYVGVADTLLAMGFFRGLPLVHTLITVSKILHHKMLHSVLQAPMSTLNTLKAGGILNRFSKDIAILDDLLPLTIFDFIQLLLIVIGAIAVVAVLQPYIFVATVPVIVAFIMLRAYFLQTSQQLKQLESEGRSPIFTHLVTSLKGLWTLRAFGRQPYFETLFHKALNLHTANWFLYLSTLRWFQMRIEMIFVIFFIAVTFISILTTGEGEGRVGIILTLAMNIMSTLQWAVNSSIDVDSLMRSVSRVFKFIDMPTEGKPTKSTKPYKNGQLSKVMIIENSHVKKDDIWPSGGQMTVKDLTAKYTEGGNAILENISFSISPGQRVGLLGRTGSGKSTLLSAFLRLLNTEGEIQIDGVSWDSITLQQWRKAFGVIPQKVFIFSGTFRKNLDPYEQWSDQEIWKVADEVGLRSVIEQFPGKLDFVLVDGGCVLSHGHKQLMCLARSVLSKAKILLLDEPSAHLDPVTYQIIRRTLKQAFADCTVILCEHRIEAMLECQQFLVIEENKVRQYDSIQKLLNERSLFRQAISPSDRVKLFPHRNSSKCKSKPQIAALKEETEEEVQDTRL

Question: What does the source list for `Nc1ccc([N+](=O)[O-])cc1-c1nc2ccccc2n(Cc2ccccc2)c1=O` [CFTRact-J027, 3-(2-amino-5-nitrophenyl)-1-benzylquinoxalin-2(1H)-one]?
Answer: enteroid swelling response as % of that produced by maximal (5 μM) forskolin [1]: approximately 50%; EC50 [2]: ~300 nM; whole-gut transit time in cystic fibrosis mice ([3]; cystic fibrosis mice): no effect on whole-gut transit time; whole-gut transit time ([3]; loperamide-treated wild-type mice, 10 mg/kg ip): normalized; amount in mouse blood, brain, liver and kidney (limit of detection) [4]: < 700 fmol; EC50 [5]: 200 nM; efficacy, ip after development of constipation ([6]; 10 mg/kg ip 1 h after loperamide or scopolamine): effective; stool parameters, oral 1 h prior to scopolamine ([6]; 10 mg/kg po): normalization of stool parameters; efficacy, oral after development of constipation ([6]; 10 mg/kg po 1 h after loperamide or scopolamine): not effective; stool output, pellet number and water content compared to lubiprostone and linaclotide ([6]; J027 10 mg/kg vs 0.5 mg/kg comparators, oral): more effective in increasing stool output, pellet number and water content; degradation in simulated gastric fluid [7]: no compound degradation; intestinal fluid absorption [8]: did not affect intestinal fluid absorption

Reference: US11084795B2, “CFTR regulators and methods of use thereof” (The Regents of the University of California, priority 2015, dated 2021)
